# Assay results reported in patent publication US11072609B2, “Method for preparing halogenated imidazopyridine derivatives” (Bayer Aktiengesellschaft, priority 2017, dated 2021).
# How the values were obtained:
# [1] = tested on: Myzus persicae; assay: Myzus persicae - oral test; type: in vivo; details: application rate 4 ppm; after 5 days; 100% = all aphids killed
# Method: Myzus persicae—Oral Test Solvent: 100 parts by weight of acetone To produce a suitable active ingredient formulation, 1 part by weight of active ingredient is dissolved with the stated parts by weight of solvent and made up to the desired concentration with water. 50 μl of the active ingredient formulation are transferred into microtitre plates and made up to a final volume of 200 μl with 150 μl of IPL41 insect medium (33%+15% sugar). Subsequently, the plates are sealed with parafilm, which a mixed population of green peach aphids (Myzus persicae) within a second microtitre plate is able to puncture and imbibe the solution. After 5 days, the efficacy in % is determined. 100% means that all the aphids have been killed; 0% means that no aphids have been killed.
# [2] = tested on: Phaedon cochleariae; assay: Phaedon cochleariae - spray test; type: in vivo; details: application rate 100 g/ha; Chinese cabbage leaf discs, larvae; after 7 days
# Method: Phaedon cochleariae—Spray Test
# To produce a suitable active ingredient formulation, 1 part by weight of active ingredient is dissolved with the specified parts by weight of solvent and made up to the desired concentration with water containing an emulsifier concentration of 1000 ppm. To produce further test concentrations, the formulation is diluted with emulsifier-containing water.
# Discs of Chinese cabbage leaves (Brassica pekinensis) are sprayed with an active ingredient formularation of the desired concentration and, after drying, populated with larvae of the mustard beetle (Phaedon cochleariae).
# After 7 days, the efficacy in % is determined. 100% means that all the beetle larvae have been killed; 0% means that no beetle larvae have been killed.
# [3] = log P by HPLC on reversed-phase column (C 18), EEC Directive 79/831 Annex V.A8; type: physicochemical; details: reversed-phase C18 HPLC column; HPLC-MS, reversed-phase C 18, 55° C.; acidic or neutral range not stated
# Method: The log P values are measured according to EEC Directive 79/831 Annex V.A8 by HPLC (high-performance liquid chromatography) on a reversed-phase column (C 18). Temperature: 55° C. The LC-MS determination in the acidic range is carried out at pH 2.7 using the mobile phases 0.1% aqueous formic acid and acetonitrile (contains 0.1% formic acid); linear gradient from 10% acetonitrile to 95% acetonitrile. The LC-MS determination in the neutral range is carried out at pH 7.8 using the mobile phases 0.001 molar aqueous ammonium bicarbonate solution and acetonitrile; linear gradient from 10% acetonitrile to 95% acetonitrile. Calibration is carried out using unbranched alkan-2-ones (having 3 to 16 carbon atoms) with known log P values (log P values determined on the basis of the retention times by linear interpolation between two successive alkanones).
# [4] = tested on: Myzus persicae; assay: Myzus persicae - spray test; type: in vivo; details: Chinese cabbage leaf discs, after 5 days
# Method: Myzus persicae—Spray Test [table] To produce a suitable active ingredient formulation, 1 part by weight of active ingredient is dissolved with the specified parts by weight of solvent and made up to the desired concentration with water containing an emulsifier concentration of 1000 ppm. To produce further test concentrations, the formulation is diluted with emulsifier-containing water. Discs of Chinese cabbage leaves (Brassica pekinensis) infested by all stages of the green peach aphid (Myzus persicae) are sprayed with an active ingredient formulation of the desired concentration. After 5 days, the efficacy in % is determined. 100% means that all the aphids have been killed; 0% means that no aphids have been killed.
# [5] = tested on: Spodoptera frugiperda; assay: Spodoptera frugiverda - spray test; type: in vivo; details: application rate 100 g/ha; maize leaf discs, caterpillars; after 7 days
# Method: Spodoptera frugiverda—Spray Test [table] To produce a suitable active ingredient formulation, 1 part by weight of active ingredient is dissolved with the specified parts by weight of solvent and made up to the desired concentration with water containing an emulsifier concentration of 1000 ppm. To produce further test concentrations, the formulation is diluted with emulsifier-containing water. Leaf discs of maize (Zea mays) are sprayed with an active ingredient formulation of the desired concentration and, after drying, populated with caterpillars of the armyworm (Spodoptera frugiperda). After 7 days, the efficacy in % is determined. 100% means that all the caterpillars have been killed; 0% means that no caterpillar has been killed.
chromatographic logP [3],SMILES,efficacy [1] [%],also measured
–,"CCS(=O)(=O)c1ccc(-n2cncn2)nc1-c1nc2cc(C(F)(F)F)nc(C#N)c2n1C [Compound No. 1, 2-[3-(ethylsulfonyl)-6-(1H-1,2,4-triazol-1-yl)pyridin-2-yl]-3-methyl-6-(trifluoromethyl)-3H-imidazo[4,5-c]pyridine-4-carbonitrile]",100,efficacy [2]: 83%
4.17,"CCSc1ccc(Cl)nc1-c1nc2cc(C(F)(F)F)nc(I)c2n1C [Example 1, 2-[6-chloro-3-(ethylsulfanyl)pyridin-2-yl]-4-iodo-3-methyl-6-(trifluoromethyl)-3H-imidazo[4,5-c]pyridine]",–,–
4.34,"CCSc1ccc(Br)nc1-c1nc2cc(C(F)(F)F)nc(I)c2n1C [Example 2, 2-[6-bromo-3-(ethylsulfanyl)pyridin-2-yl]-4-iodo-3-methyl-6-(trifluoromethyl)-3H-imidazo[4,5-c]pyridine]",–,–
3.23,"CCSc1ccc(Cl)nc1-c1nc2cc(C(F)(F)F)nc(C)c2n1C [Example 3, 2-[6-chloro-3-(ethylsulfanyl)pyridin-2-yl]-3,4-dimethyl-6-(trifluoromethyl)-3H-imidazo[4,5-c]pyridine]",–,–
3.36,"CCSc1ccc(Br)nc1-c1nc2cc(C(F)(F)F)nc(C)c2n1C [Example 4, 2-[6-bromo-3-(ethylsulfanyl)pyridin-2-yl]-3,4-dimethyl-6-(trifluoromethyl)-3H-imidazo[4,5-c]pyridine]",–,–
3.84,"CCSc1ccc(Cl)nc1-c1nc2cc(C(F)(F)F)nc(C#N)c2n1C [Example 5, 2-[6-chloro-3-(ethylsulfanyl)pyridin-2-yl]-3-methyl-6-(trifluoromethyl)-3H-imidazo[4,5-c]pyridine-4-carbonitrile]",–,–
3.87,"CCSc1ccc(Br)nc1-c1nc2cc(C(F)(F)F)nc(C#N)c2n1C [Example 6, 2-[6-bromo-3-(ethylsulfanyl)pyridin-2-yl]-3-methyl-6-(trifluoromethyl)-3H-imidazo[4,5-c]pyridine-4-carbonitrile]",–,–
4.18,"CCSc1ccc(Br)nc1-c1nc2cc(C(F)(F)F)nc(Cl)c2n1C [Example 7, 2-[6-bromo-3-(ethylsulfanyl)pyridin-2-yl]-4-chloro-3-methyl-6-(trifluoromethyl)-3H-imidazo[4,5-c]pyridine]",–,–
–,CCS(=O)(=O)c1ccc(-n2cncn2)nc1-c1nc2cc(C(F)(F)F)nc(C)c2n1C [compound 2],100,efficacy ([4]; application rate 20 g/ha): 90%; efficacy [2]: 83%
–,CCS(=O)(=O)c1ccc(-n2cncn2)nc1-c1nc2cc(C(F)(F)F)nc(Cl)c2n1C [compound 3],100,efficacy ([4]; application rate 20 g/ha): 100%; efficacy ([4]; application rate 100 g/ha): 100%; efficacy [5]: 100%
